Numbered stars: 1 amine (or outer) side, 2 acyl side, 3 side chain; on linkers, the order of the positions; unused ones are H or OH. Square brackets hold non-standard residues; d marks the D form. Side chains are listed from the residue outwards. Peptide text beside a SMILES is read from it. * marks the point of attachment. C18 diacid = O=C(O)CCCCCCCCCCCCCCCCC(=O)*; γGlu = O=C(O)[C@H](CCC(=O)[*:2])N[*:1]; AEEA = NCCOCCOCC(=O)O; Aib = CC(C)(N)C(=O)O
Tests used:
[1] = Thioflavin T (ThT) fibrillation assay for physical stability; format: physicochemical; settings: 250 μM in 10 mM HEPES buffer, pH 7.5, 37° C., shaking 960 rpm
Method in brief: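 Fibrillation was followed by ThT (1 μM) fluorescence every 20 min, 444/485 nm, for 250 μM peptide in 10 mM HEPES pH 7.5 shaken at 960 rpm, 37° C. Lag time (t0−2τ) and apparent rate constant (1/τ) come from a sigmoidal fit. Recovery is % of initial concentration remaining soluble after centrifugation and filtration (RP-HPLC).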

[2] = Chemical stability assessment by RP-UPLC; format: physicochemical; settings: 333 μM, 8 mM phosphate buffer pH 7.3, 37° C. vs 5° C.
Protocol: The purpose of this assay was to assess the chemical stability of the glucagon derivatives of the invention in aqueous solutions.
Chemical stability of glucagon derivatives or analogues was investigated by RP-UPLC separation and UV detection. Lyophilized samples were dissolved in a 8 mM Phosphate buffer pH 8.6, followed by adjustment to pH 7.3.using HCl to a final concentration of 333 μM. Samples were incubated for 14 days at 5° C. and 37° C. followed by RP-UPLC analysis. Purity was defined as the area percentage of the main peak in relation to the total area of all integrated peaks in each chromatogram. Purity loss after 14 days at 37° C. was determined as the difference in purity between the samples incubated at 5° C. and 37° C., divided by the purity of the sample after incubation for 14 days at 5° C.
RP-UPLC analysis was performed using a Waters BEH130 2.1 mm×150 mm, 1.7 μm column operated at 50° C. and a flow rate of 0.4 mL/min using a mobile phase system consisting of A: 0.05% TFA in MQ-water B: 0.05% TFA in Acetonitrile. UV-detection was performed at 215 nm. The typical gradient profile used for most of the samples is shown below.
For some individual derivatives or analogues eluting at substantially different retention times compared with the majority of derivatives or analogues, some adjustments to the gradient profile were made to better enable purity assessment comparison across samples. The data confirmed the improved chemical stability of the glucagon derivatives of this invention.

human glucagon receptor = biological target: T1, human glucagon receptor (Homo sapiens, UniProt P47871); assay: Glucagon receptor potency, CRE luciferase reporter gene assay in BHK cells; format: cell-based; settings: BHK cells expressing human glucagon receptor, read-out: EC50 GlucR
T1 construct: expressed in transfected cells; host or cells: BHK cells (parent BHK570, CRE luciferase clone BHK/KZ10-20-48), clone pLJ6'-4-25
T1 sequence (P47871 26-477): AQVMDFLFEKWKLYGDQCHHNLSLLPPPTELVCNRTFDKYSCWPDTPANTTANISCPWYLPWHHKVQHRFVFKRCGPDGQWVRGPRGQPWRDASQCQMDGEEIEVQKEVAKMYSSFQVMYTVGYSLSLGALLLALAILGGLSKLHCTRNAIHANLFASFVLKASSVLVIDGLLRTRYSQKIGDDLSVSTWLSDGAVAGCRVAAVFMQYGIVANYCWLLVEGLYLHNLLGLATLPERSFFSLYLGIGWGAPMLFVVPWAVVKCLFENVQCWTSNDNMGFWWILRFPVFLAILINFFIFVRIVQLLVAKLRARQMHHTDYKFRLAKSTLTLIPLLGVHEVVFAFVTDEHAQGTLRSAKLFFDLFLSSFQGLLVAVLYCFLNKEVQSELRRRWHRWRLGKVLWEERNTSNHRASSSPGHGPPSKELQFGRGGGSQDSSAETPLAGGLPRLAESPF
Protocol: The purpose of this example was to test the potency, of the glucagon derivatives of the invention, in vitro. The in vitro potency is the measure of human GLP-1 receptor or glucagon receptor activation, respectively, in a whole cell assay.
In vitro potency was determined by measuring the response of human GLP-1 or glucagon receptor, respectively, in a reporter gene assay. The assay was performed in a stably transfected BHK cell line that expresses either the human GLP-1 receptor or the human glucagon receptor and contains the DNA for the cAMP response element (CRE) coupled to a promoter and the gene for firefly luciferase (CRE luciferase). […] When assay incubation was completed, the luciferase substrate (luciferin) was added and the enzyme converted luciferin to oxyluciferin and produces bioluminescence. The luminescence was measured as the readout for the assay.
The cells used in this assay (clone pLJ6′-4-25) were BHK cells with BHK570 as a parent cell line expressing the CRE luciferase gene (clone BHK/KZ10-20-48) and were established by further transfection with the human glucagon receptor (clone pLJ6′ in pHZ-1 vector).
The cells were cultured at 5% CO2 in DMEM medium with 10% FBS, 1×GlutaMAX, 1 mg/ml G418, 240 nM MTX (methotrexate) and 1% pen/strep (penicillin/streptomycin). They were aliquoted and stored in liquid nitrogen. Before each assay, an aliquot was taken up and washed three times in PBS before being suspended at the desired concentration in assay medium. For 96-well plates the suspension was made to give a final concentration of 5×10EE3 cells/well.
The following chemicals were used in the assay: Pluronic F-68 (10%) (Gibco 2404), ovalbumin (Sigma A5503), DMEM w/o phenol red (Gibco 11880-028), 1 M Hepes (Gibco 15630), Glutamax 100× (Gibco 35050) and steadylite plus (PerkinElmer 6016757).
Assay Medium consisted of DMEM w/o phenol red, 10 mM Hepes, 1× GlutaMAX, 2% Ovalbumin and 0.2% Pluronic F-68.
Cell stocks were thawed in a 37° C. water bath. Cells were washed three times in PBS. The cells were counted and adjusted to 5×10EE3 cells/50 μl (1×10EE5 cells/ml) in Assay Medium. A 50 μl aliquot of cells was transferred to each well in the assay plate.
Stocks of the test compounds and reference compounds were diluted to a concentration of […] in Assay Medium. Compounds were diluted 10-fold to give the following concentrations: 2×10EE-6 M, 2×10EE-7 M, 2×10EE-8 M; 2×10EE-9 M, 2×10EE-10 M, 2×10EE-11 M, 2×10EE-12 M and 2×10EE-13 M. For each compound a blank assay medium control was also included.
A 50 μl aliquot of compound or blank was transferred from the dilution plate to the assay plate. Compounds were tested at the following final concentrations: 1×10EE-6 M, 1×10EE-7 M, 1×10EE-8 M; 1×10EE-9 M, 1×10EE-10 M, 1×10EE-11 M and 1×10EE-12 M and 1×10EE-13 M.
The assay plate was incubated for 3 h in a 5% CO2 incubator at 37° C. The assay plate was removed from the incubator and allowed to stand at room temperature for 15 min. A 100 μl aliquot of steadylite plus reagent was added to each well of the assay plate (reagent is light sensitive). Each assay plate was covered with aluminum foil to protect it from light and shaken for 30 min at room temperature. Each assay plate was read in a Perkin Elmer TopCount NXT instrument.
The data from the TopCount instrument was transferred to GraphPad Prism software. The software performed a non-linear regression (log(agonist) vs response-Variable slope (four parameter)). EC50 values were calculated by the software and reported in pM.

THT assay Lag time (Ex. 76) [1]: 45 h
Purity loss; 14 days at 37° C. [2]: 2%
EC50 (human glucagon receptor): 0.024 nM
Compound: CC(C)C[C@H](NC(=O)[C@H](CC(C)C)NC(=O)[C@H](Cc1c[nH]c2ccccc12)NC(=O)[C@H](CCC(N)=O)NC(=O)[C@@H](NC(=O)[C@H](Cc1ccccc1)NC(=O)[C@H](CCC(=O)O)NC(=O)[C@H](CCCNC(=N)N)NC(=O)[C@H](C)NC(=O)[C@H](CCCNC(=N)N)NC(=O)[C@H](CCCNC(=N)N)NC(=O)[C@H](CC(C)C)NC(=O)[C@H](CC(=O)O)NC(=O)[C@H](CC(C)C)NC(=O)[C@H](Cc1ccc(O)cc1)NC(=O)[C@H](CCCCN)NC(=O)[C@H](CO)NC(=O)[C@H](CC(C)C)NC(=O)[C@H](CC(=O)O)NC(=O)[C@H](CO)NC(=O)[C@@H](NC(=O)[C@H](Cc1ccccc1)NC(=O)[C@@H](NC(=O)CNC(=O)[C@H](CCC(N)=O)NC(=O)C(C)(C)NC(=O)[C@@H](N)Cc1c[nH]cn1)[C@@H](C)O)[C@@H](C)O)C(C)C)C(=O)N[C@@H](CC(N)=O)C(=O)N[C@@H](CCCCNC(=O)CC[C@H](NC(=O)CC[C@H](NC(=O)COCCOCCNC(=O)CC[C@H](NC(=O)CCCCCCCCCCCCCCCCC(=O)O)C(=O)O)C(=O)O)C(=O)O)C(N)=O [Example 38, N^ε29-[(4S)-4-carboxy-4-[[(4S)-4-carboxy-4-[[2-[2-[2-[[(4S)-4-carboxy-4-(17-carboxyheptadecanoylamino)butanoyl]amino]ethoxy]ethoxy]acetyl]amino]butanoyl]amino]butanoyl]-[Aib2,Leu10,Leu16,Arg20,Glu21,Leu27,Lys29]-Glucagon amide] (H-H[Aib]QGTFTSDLSKYLDLRRAREFVQWLLNK([γGlu-γGlu-AEEA-γGlu-C18 diacid])-NH2; N-terminus assumed)
